From the supplement of paper PMC10331698
± gives the standard deviation of the averaged measurements.

How the values were obtained:
Test in all cases: level (log10 ratio to DMSO vehicle control); higher = higher biomarker level / cell amount than vehicle control
Details in all cases: in DMSO
1-(Perfluorohexyl)octane = compound: CCCCCCCCC(F)(F)C(F)(F)C(F)(F)C(F)(F)C(F)(F)C(F)(F)F [1-(Perfluorohexyl)octane]
Experimental: (§1)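 BioMAP Diversity Plus panel of 12 human primary cell co-culture systems (3C, 4H, LPS, SAg, BT, BF4T, BE3C, CASM3C, HDF3CGF, KF3CT, MyoF, Mphg). Compounds were added 1 h before stimulation and left for 24 h (MyoF 48 h; BT 72 h for soluble read-outs or 6 d for IgG). Biomarkers were read by ELISA, cytotoxicity by SRB, PBMC viability and proliferation by Alamar Blue. Each well value was divided by the mean of 8 DMSO control wells on the same plate and log10 transformed; duplicate blinded samples were tested at 4 concentrations.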

Perfluorooctanamidine = compound: N=C(N)C(F)(F)C(F)(F)C(F)(F)C(F)(F)C(F)(F)C(F)(F)C(F)(F)F [Perfluorooctanamidine]
Experimental: as §1

[1] = compound: O=C(O)C(F)(F)C(F)(F)C(F)(F)C(F)(F)C(F)(F)C(F)(F)C(F)(F)C(F)(F)Cl [9-Chloro-perfluorononanoic acid]
Experimental: as §1

[2] = compound: O=S(=O)(O)C(F)(F)C(F)(F)C(F)(F)C(F)(F)F [Perfluorobutanesulfonic acid]
Experimental: as §1

| Test System | level (log10) (1-(Perfluorohexyl)octane; 6700 nM) | level (log10) (1-(Perfluorohexyl)octane; 20000 nM) | level (log10) (Perfluorooctanamidine; 6700 nM) | level (log10) (Perfluorooctanamidine; 20000 nM) | level (log10) (Perfluorooctanamidine; 60000 nM) | level (log10) ([1]; 6700 nM) | level (log10) ([1]; 20000 nM) | level (log10) ([2]; 6700 nM) | level (log10) ([2]; 20000 nM) | level (log10) ([2]; 60000 nM) |
| --- | --- | --- | --- | --- | --- | --- | --- | --- | --- | --- |
| 3C:CD87/uPAR | -0.0145 ± 0.013 | -0.0075 ± 0.019 | 0.0265 ± 0.059 | 0.0135 ± 0.028 | 0.042 | -0.013 ± 0.017 | -0.011 ± 0.038 | -0.007 ± 0.027 | -0.0075 ± 0.00071 | -0.0235 ± 0.022 |
| 3C:CXCL8/IL-8 | -0.005 ± 0.0028 | 0.0005 ± 0.019 | 0.018 ± 0.011 | 0.022 ± 0.0085 | 0.08 | 0.005 ± 0.037 | 0.0235 ± 0.063 | 0.0045 ± 0.00071 | 0.008 ± 0.021 | 0.071 ± 0.04 |
| 3C:CXCL9/MIG | 0.009 ± 0.023 | 0.017 ± 0.016 | 0.007 ± 0.0071 | -0.0165 ± 0.0035 | 0.005 | -0.005 ± 0.0042 | 0.0065 ± 0.0078 | 0.009 ± 0.016 | 0.009 ± 0.017 | 0.0175 ± 0.0021 |
| 3C:HLA-DR | 0.028 ± 0.03 | 0.0205 ± 0.019 | 0.0025 ± 0.016 | -0.0295 ± 0.0064 | -0.035 | -0.0105 ± 0.0078 | 0.004 ± 0.021 | -0.0015 ± 0.015 | -0.007 ± 0.0057 | -0.006 ± 0.013 |
| 3C:Proliferation | -0.0125 ± 0.06 | -0.0035 ± 0.012 | -0.0395 ± 0.018 | -0.054 ± 0.028 | -0.194 | 0.016 ± 0.079 | 0.019 ± 0.041 | -0.002 ± 0.0014 | 0.017 ± 0.031 | -0.0525 ± 0.023 |
| 3C:SRB | 0.004 ± 0.021 | -0.005 ± 0.018 | 0.008 ± 0.016 | 0.0195 ± 0.019 | -0.054 | -0.0005 ± 0.005 | -0.0165 ± 0.0035 | 0.004 ± 0.0099 | -0.0095 ± 0.0035 | -0.021 ± 0.0042 |
| 4H:CCL2/MCP-1 | -0.0525 ± 0.019 | -0.0495 ± 0.021 | 0.0095 ± 0.011 | -0.0055 ± 0.0064 | 0.061 | -0.001 ± 0.014 | -0.0245 ± 0.0035 | -0.021 ± 0.0042 | -0.0095 ± 0.023 | -0.017 ± 0.018 |
| 4H:CCL26/Eotaxin-3 | -0.0025 ± 0.0021 | 0.004 ± 0.021 | -0.006 ± 0.0042 | -0.033 ± 0.0042 | -0.118 | -0.04 ± 0.011 | 0.016 ± 0.037 | -0.0025 ± 0.054 | -0.001 ± 0.051 | -0.048 ± 0.028 |
| 4H:CD62P/P-selectin | 0.0245 ± 0.039 | -0.007 ± 0.016 | -0.0165 ± 0.012 | -0.007 ± 0.0085 | -0.032 | -0.001 ± 0.065 | 0.0815 ± 0.023 | -0.0155 ± 0.035 | 0.0045 ± 0.016 | -0.0085 ± 0.015 |
| 4H:CD87/uPAR | 0.027 ± 0.027 | 0.0155 ± 0.015 | 0.0455 ± 0.097 | 0.055 ± 0.028 | 0.146 | 0.0055 ± 0.033 | 0.002 ± 0.0099 | 0.0115 ± 0.052 | 0.0235 ± 0.022 | 0.025 ± 0.021 |
| 4H:CD106/VCAM-1 | 0.011 ± 0.04 | -0.005 | 0.0015 ± 0.011 | -0.028 ± 0.016 | -0.132 | -0.0145 ± 0.0078 | 0.0035 ± 0.013 | -0.024 ± 0.016 | -0.029 ± 0.028 | 0.001 ± 0.033 |
| 4H:SRB | 0.0035 ± 0.019 | -0.002 ± 0.0042 | 0.0035 ± 0.0021 | -0.006 ± 0.0071 | -0.029 | -0.0015 ± 0.00071 | -0.0055 ± 0.0035 | 0.0005 ± 0.0064 | 0.002 ± 0.0028 | 0 ± 0.0099 |
| 4H:VEGFR2 | 0.0045 ± 0.022 | 0.0245 ± 0.0021 | -0.0135 ± 0.023 | -0.023 ± 0.025 | 0.064 | -0.108 ± 0.011 | -0.0395 ± 0.013 | -0.049 ± 0.04 | -0.0215 ± 0.026 | -0.012 ± 0.0071 |
| BE3C:CD54/ICAM-1 | 0.0045 ± 0.011 | -0.0025 ± 0.0021 | -0.017 ± 0.0028 | -0.019 ± 0.0057 | 0.027 | 0.0145 ± 0.018 | -0.033 ± 0.014 | -0.0185 ± 0.0021 | -0.009 ± 0.0028 | -0.021 ± 0.0057 |
| BE3C:CD87/uPAR | 0.0085 ± 0.00071 | 0.017 ± 0.0099 | -0.001 ± 0.014 | -0.0035 ± 0.057 | 0.083 | 0.0445 ± 0.0021 | -0.0005 ± 0.039 | -0.035 ± 0.0028 | -0.044 ± 0.016 | -0.037 ± 0.027 |
| BE3C:CXCL8/IL-8 | 0.0125 ± 0.052 | 0.068 ± 0.024 | 0.029 ± 0.042 | -0.026 ± 0.061 | -0.034 | 0.0025 ± 0.025 | -0.102 ± 0.049 | 0.0075 ± 0.035 | 0.013 ± 0.028 | 0.0005 ± 0.0092 |
| BE3C:CXCL9/MIG | 0.0055 ± 0.0035 | 0.0015 ± 0.0021 | 0.0135 ± 0.018 | 0.0085 ± 0.0092 | 0.037 | -0.0015 ± 0.00071 | -0.047 | 0.01 ± 0.034 | 0.0025 ± 0.023 | 0.013 ± 0.0057 |
| BE3C:CXCL10/IP-10 | 0.0055 ± 0.013 | -0.0025 ± 0.012 | 0.0045 ± 0.023 | -0.0055 ± 0.0035 | 0.003 | -0.0545 ± 0.015 | -0.462 ± 0.011 | 0.009 ± 0.038 | -0.0015 ± 0.028 | 0.0005 ± 0.018 |
| BE3C:CXCL11/I-TAC | 0.003 ± 0.016 | -0.0035 ± 0.0021 | -0.0055 ± 0.0078 | -0.014 ± 0.016 | -0.014 | 0.0515 ± 0.005 | -0.161 ± 0.032 | 0.0115 ± 0.012 | 0.0065 ± 0.00071 | 0.007 ± 0.0071 |
| BE3C:EGFR | -0.001 ± 0.0042 | -0.013 ± 0.0028 | -0.009 ± 0.0014 | -0.013 ± 0.014 | -0.022 | -0.004 ± 0.0014 | -0.101 ± 0.015 | -0.0045 ± 0.021 | 0 ± 0.018 | 0.0005 ± 0.0092 |
| BE3C:HLA-DR | 0.0095 ± 0.036 | 0.0015 ± 0.005 | -0.0015 ± 0.018 | -0.003 ± 0.021 | -0.01 | -0.0575 ± 0.025 | -0.445 ± 0.052 | -0.003 | 0 ± 0.0028 | 0.0035 ± 0.018 |
| BE3C:IL-1alpha | 0.001 ± 0.02 | 0.0415 ± 0.044 | 0.0065 ± 0.026 | 0.002 ± 0.0028 | 0.047 | 0.023 ± 0.017 | -0.0765 ± 0.026 | -0.0175 ± 0.012 | -0.013 ± 0.0085 | -0.0075 ± 0.012 |
| BF4T:CCL2/MCP-1 | -0.014 ± 0.028 | 0.0175 ± 0.005 | 0.031 ± 0.0099 | 0.025 ± 0.045 | 0.06 | -0.034 ± 0.028 | -0.0785 ± 0.044 | 0.028 ± 0.0014 | 0.026 ± 0.024 | 0.033 ± 0.018 |
| BF4T:CCL26/Eotaxin-3 | 0.015 ± 0.051 | 0.0015 ± 0.054 | 0.0375 ± 0.044 | -0.0585 ± 0.026 | -0.106 | -0.144 ± 0.016 | -0.27 ± 0.014 | -0.057 ± 0.09 | -0.014 ± 0.035 | -0.003 ± 0.047 |
| BF4T:CD54/ICAM-1 | 0.0005 ± 0.005 | -0.0085 ± 0.023 | -0.001 ± 0.0085 | -0.006 ± 0.017 | 0.039 | -0.0085 ± 0.0021 | -0.0355 ± 0.0064 | -0.027 ± 0.0085 | -0.002 ± 0.0014 | -0.0115 ± 0.019 |
| BF4T:CD90 | -0.004 ± 0.0028 | -0.013 ± 0.0071 | 0.0025 ± 0.015 | -0.0115 ± 0.005 | 0.042 | -0.034 ± 0.013 | -0.0285 ± 0.005 | -0.007 ± 0.0042 | -0.008 ± 0.021 | -0.015 ± 0.011 |
| BF4T:CD106/VCAM-1 | 0.005 ± 0.051 | -0.0025 ± 0.035 | 0.0325 ± 0.0092 | 0.018 ± 0.052 | 0.021 | -0.0485 ± 0.005 | -0.141 ± 0.011 | -0.0175 ± 0.0078 | -0.0325 ± 0.046 | -0.021 ± 0.0028 |
| BF4T:CXCL8/IL-8 | -0.0005 ± 0.00071 | 0.008 ± 0.023 | 0.0025 ± 0.016 | 0.002 ± 0.034 | 0 | 0.112 ± 0.042 | 0.0875 ± 0.015 | -0.0205 ± 0.0064 | 0.006 ± 0.0057 | 0.0095 ± 0.013 |
| BF4T:IL-1alpha | -0.017 ± 0.018 | 0.012 ± 0.02 | -0.003 ± 0.0085 | -0.017 ± 0.0014 | 0.042 | 0.0205 ± 0.0035 | -0.023 ± 0.011 | 0.0135 ± 0.00071 | 0.0135 ± 0.016 | 0.011 ± 0.016 |
